Assay results as given in paper PMC12766724, “Synthesis, Anthelmintic Activity, and Mechanism of Action of 5‑Aryl‑1H‑indoles” (Journal of Agricultural and Food Chemistry, 2025).

Tests used:
[1] = system: human keratinocytes (HaCaT); experiment: Resazurin assay, 3-day treatment; format: cell-based
[2] = system: C. elegans CB211 lev-1(e211) IV.; experiment: Chitinase assay (reproductive capacity); format: in vivo; settings: Caenorhabditis elegans; levamisole-resistant strain
Protocol: (§1) C. elegans strains used in this study were N2 (wild-type), levamisole-resistant strains ZZ15 (lev-8(x15) X) and […] (lev-1(e211) IV), ivermectin-resistant strain DA1316 (avr-14(ad1305) I; avr-15(vu227) glc-1(pk54) V), mebendazole-resistant strain […] (ben-1(e1880) III), and three strains with mutations in succinate dehydrogenase, RP2699, RP2700, and RP2702. The worms were cultivated on Nematode Growth Medium agar plates seeded with Escherichia coli OP50 in 20 °C according to the standard cultivation protocols. Strains RP2699, RP2700, and RP2702 were generated by Prof. Peter Roy’s group. All other strains and bacteria were purchased from the Caenorhabditis Genetics Center (CGC, Minneapolis, MN).
(§2) The effect of compounds on C. elegans was evaluated using the Chitinase assay as we described previously.
(§3) Lastly, strain DA1316 has mutations in three genes encoding subunits of the glutamate-gated chloride channel and is highly resistant to avermectins.

[3] = system: C. elegans CB3474 ben-1(e1880) III.; experiment: Chitinase assay (reproductive capacity); format: in vivo; settings: Caenorhabditis elegans; mebendazole-resistant strain
Protocol: as §1, §2, §3

[4] = system: C. elegans ZZ15 lev-8(x15) X.; experiment: Chitinase assay (reproductive capacity); format: in vivo; settings: Caenorhabditis elegans; levamisole-resistant strain
Protocol: as §1, §2, §3

[5] = system: C. elegans DA1316 avr-14(ad1305) I; avr-15(vu227) glc-1(pk54) V.; experiment: Chitinase assay (reproductive capacity); format: in vivo; settings: Caenorhabditis elegans; ivermectin-resistant strain
Protocol: as §1, §2, §3

H. schachtii = experiment: DESI-MS detection of compound in nematodes; design: species or system Heterodera schachtii
Protocol: (§4) For in situ visualization of selected compounds, desorption electrospray ionization mass spectrometry imaging (DESI-MSI) was performed by using a Synapt G2-Si MS instrument coupled to a 2D-DESI source (Waters). The spray solvent (95% MeOH with 0.1% ammonia) was delivered at 2 μL/min and nebulized with […] ultrapure nitrogen on sample slides. The DESI source was optimized as follows: tip-to-surface distance: 1 mm; tip-to-inlet distance: 5 mm; incidence angle: 55°; collection angle: 10°; capillary voltage: 4 kV; cone voltage: […]; mass range: 100–600, with 16 000–17 000 full width at half-maximum (fwhm) mass resolution. Data were acquired in the negative mode using MassLynx software (v4.1, Waters, Milford, MA). Spectra, with a spatial resolution of 30 μm, were acquired every second. All acquired spectra were then recalibrated with the exact mass of the standard compounds and normalized based on root mean square (RMS) intensities. […] DESI-MS/MS was performed on the same sampling area with a 20 eV collision energy scanning of nematodes, and the acquired MS/MS spectra were summarized for the fragmentation ion assignment, and the correct molecular formulas were first calculated using MassLynx software (v4.1) and then identified by their masses acquired from the standard solution. […]

C. elegans = experiment: DESI-MS detection of compound in nematodes; design: species or system Caenorhabditis elegans
Protocol: as §4

C. elegans N2 = experiment: Scoring of developmental rates, L1 exposed 5 days; format: in vivo, Caenorhabditis elegans; design: key: 1 = dead/arrested at L1 … 5 = healthy, normal reproduction
Text: Dead or mostly immobile worms, arrested at the L1 stage, received a score of 1. Populations with severely delayed development were scored as 2. More developmentally advanced, but still obviously delayed worms were given the score of 3. Adult worms that produce a noticeably lower number of progeny received a score of 4. Healthy worms that reproduce normally (i.e., hundreds of eggs and larvae are present) were scored as 5 (see Figure C for representative images). In a typical, correctly prepared experiment, vehicle-treated populations should receive a score of 5, while worms treated with ivermectin (positive control) should receive a score of 1. […]

[6] = system: H. schachtii second-stage juveniles (J2); experiment: Nematicidal assay with NaOH agitation; format: in vivo, Heterodera schachtii; settings: 50 µM; 48 h
Text: To assess the nematicidal effect of compounds on H. schachtii second-stage juveniles (J2), approximately 50 J2 in sterile double-distilled water were transferred into each well of a flat-bottom 96-well plate and exposed to the test compounds or vehicle alone (DMSO 0.2%).

| Structure (SMILES) | Average viability (signal intensity relative to control) ([1]; 10 µM) | Average viability (signal intensity relative to control) ([1]; 20 µM) | Average viability (signal intensity relative to control) ([1]; 40 µM) | IC50 [2] [µM] | IC50 [3] [µM] | IC50 [4] [µM] | IC50 [5] [µM] | DESI-MS signal of the compound in nematodes (H. schachtii) | DESI-MS signal of the compound in nematodes (C. elegans) | nematicidal effect after NaOH addition [6] | also measured |
| --- | --- | --- | --- | --- | --- | --- | --- | --- | --- | --- | --- |
| CCCOc1cccc(-c2ccc3[nH]ccc3c2)c1 [i-12] | 1.06 ± 0.14 | 1.09 ± 0.13 | 1.06 ± 0.09 | 8.69 ± 1.26 | 8.32 ± 0.74 | 8.03 ± 1.13 | 7.59 ± 1.99 | – | – | – | – |
| CCCOc1ccc(-c2ccc3[nH]ccc3c2)cc1 [i-13] | 0.97 ± 0.01 | 0.98 ± 0.02 | 0.91 ± 0.04 | 8.8 ± 1.21 | 8.28 ± 0.99 | 7.63 ± 0.91 | 8.45 ± 1.36 | able to detect signals | able to detect signals | – | – |
| Clc1ccc(-c2ccc3[nH]ccc3c2)cc1 [i-19] | 1.01 ± 0.02 | 1.02 ± 0.05 | 0.86 ± 0.1 | 6.8 ± 1.95 | 6.61 ± 0.85 | 5.92 ± 0.39 | 5.15 ± 1.01 | able to detect signals | able to detect signals | immobilize worms rather than directly kill them | mean score (1-5) (C. elegans N2; 1.336 µM): 5; mean score (1-5) (C. elegans N2; 1.782 µM): 4.222; mean score (1-5) (C. elegans N2; 2.376 µM): 4.889; mean score (1-5) (C. elegans N2; 3.168 µM): 4.889; mean score (1-5) (C. elegans N2; 4.224 µM): 4.667; mean score (1-5) (C. elegans N2; 5.631 µM): 4.444; mean score (1-5) (C. elegans N2; 7.509 µM): 4.667; mean score (1-5) (C. elegans N2; 10.011 µM): 4.444; mean score (1-5) (C. elegans N2; 13.348 µM): 4; mean score (1-5) (C. elegans N2; 17.798 µM): 2.556; mean score (1-5) (C. elegans N2; 23.731 µM): 1.333; mean score (1-5) (C. elegans N2; 31.641 µM): 1; mean score (1-5) (C. elegans N2; 42.188 µM): 1; mean score (1-5) (C. elegans N2; 56.25 µM): 1; mean score (1-5) (C. elegans N2; 75 µM): 1; mean score (1-5) (C. elegans N2; 100 µM): 1; decrease in viability ([1]; 40 µM): approximately 5% |
| Fc1ccc(-c2ccc3[nH]ccc3c2)cc1 [i-20] | 0.97 ± 0.01 | 0.99 ± 0.02 | 0.94 ± 0.02 | 9.02 ± 0.75 | 9.97 ± 1.06 | 11 ± 0.51 | 10.4 ± 1.09 | – | – | immobilize worms rather than directly kill them | – |
| FC(F)(F)Oc1ccc(-c2ccc3[nH]ccc3c2)cc1 [i-21] | 0.96 ± 0.02 | 0.96 ± 0.04 | 0.74 ± 0.11 | 10.1 ± 0.39 | 9.01 ± 0.78 | 10.6 ± 0.48 | 10.4 ± 0.41 | – | – | – | – |
